Here are results for two compounds from PMC10683025, “Discovery of a Hydroxylamine-Based Brain-Penetrant EGFR Inhibitor for Metastatic Non-Small-Cell Lung Cancer” (Journal of Medicinal Chemistry, 2023).

“Also recorded” adds a separate entry of the source. Like-named read-outs stand apart in the source and are kept apart here.

Series [1] can be described thus: Brain tissue binding by equilibrium dialysis. Format: in vitro ADME, mouse. The procedure: Plasma protein binding and brain tissue binding were determined by Pharmaron, Inc. using the equilibrium dialysis method. […] Following incubation, the samples were analyzed by LC-MS/MS and the concentrations of the compounds were determined in the buffer and plasma solution chambers.
(In equilibrium dialysis free small molecules cross a membrane that holds back macromolecules.)

The target in a further series is T1, CYP2C19 (Homo sapiens, UniProt P33261).
T1 construct: tissue BD Gentest; host or cells: pooled human liver microsomes
Kind of series: CYP450 inhibition in human liver microsomes. Format: in vitro ADME. (Microsomes from liver hold many membrane-bound enzymes, among them those of drug oxidation.)

The next series deals with T2, CYP3A4 (Homo sapiens, UniProt P08684).
T2 construct: incubated with pooled human liver microsomes (0.5 mg/mL) (BD Gentest); tissue BD Gentest; host or cells: pooled human liver microsomes
Briefly: CYP450 inhibition in human liver microsomes. Format: in vitro ADME. Conditions: midazolam.

Another series can be described thus: Pharmacokinetic study. Format: in vivo, BALB/c nude mice. The procedure: Animal experiments were performed at Pharmaron, Inc. and animal use was approved by Pharmaron’s Institutional Animal Care and Use Committee (IACUC) in Pharmaron (Pharmaron IACUC, Protocol #PK-M-07182022, #PK-R-06012022, and #ON-CELL-XEN-06012022) following the guidance of AAALAC. Six- to eight-week-old male Sprague-Dawley rats (approximately 200–300 g) obtained from Si Bei Fu Laboratory Animal Technology Co., six- to eight-week-old male CD1 mice (approximately 20–30 g) obtained from Si Bei Fu Laboratory Animal Technology Co., and six- to eight-week-old female BALB/c nude mice (approximately 20–30 g) obtained from Si Bei Fu Laboratory Animal Technology Co., were used in the pharmacokinetic studies. Six- to eight-week-old female BALB/c nude mice (approximately 18–22 g) obtained from Beijing Anikeeper Biotech Co., Ltd. were used in the intracranial PDX study. Animals were housed at 20–25 °C with humidity ranging from 40 to 70% relative humidity, were exposed to 12 h light and dark cycles, and were supplied with food and water ab libitum.
Approximately 0.03 mL of blood was collected from the dorsal metatarsal vein (in the case of CD1 mice), 0.03 mL of blood from the orbit vein (in the case of BALB/c nude mice), or 0.2 mL of blood from the jugular vein (in the case of Sprague-Dawley rats) at each time point. Blood at each sampling point was transferred into a plastic micro centrifuge tube containing K2-EDTA, and collection tubes with blood samples and anticoagulant were inverted several times for proper mixing of the tube contents and placed on ice prior to centrifugation for plasma. Blood samples were centrifuged at 4 °C, 4000g for 5 min to obtain plasma. Samples were stored in a freezer at −75 °C prior to analysis. Concentrations of test articles in the plasma samples were determined using LC-MS/MS and WinNonlin 8.3 (Phoenix) was used for pharmacokinetic calculations. The values obtained were plotted on GraphPad Prism software and are presented as mean ± SD.

A further series concerns the target T3, ADCK4 (Homo sapiens, UniProt Q96D53).
T3 construct: purchased Eurofins DiscoverX (KINOMEscan)
Kind of series: KINOMEScan. It is filed as binding. Conditions: ADCK4, 1 µM; read-out: Percent Control.

The next series addresses T4, ALK (Homo sapiens, UniProt Q9UM73).
T4 construct: purchased Eurofins DiscoverX (KINOMEscan)
Briefly: KINOMEScan. Conditions: read-out: Percent Control. It is filed as binding.

The next series concerns the target T5, AMPK-alpha2 (Homo sapiens, UniProt P54646).
T5 construct: purchased Eurofins DiscoverX (KINOMEscan)
Briefly: KINOMEScan. The conditions noted are these: AMPK-alpha2, 1 µM; read-out: Percent Control. Format: binding.

The next series concerns the target T6, ARK5 (Homo sapiens, UniProt O60285).
T6 construct: purchased Eurofins DiscoverX (KINOMEscan)
Briefly: KINOMEScan. Format: binding. Conditions: ARK5, 1 µM; read-out: Percent Control.

The target in the next series is T7, ASK1 (Homo sapiens, UniProt Q99683).
T7 construct: purchased Eurofins DiscoverX (KINOMEscan)
Briefly: KINOMEScan. Format: binding. The conditions noted are these: ASK1, 1 µM; read-out: Percent Control.

The next series addresses T8, ASK2 (Homo sapiens, UniProt O95382).
T8 construct: purchased Eurofins DiscoverX (KINOMEscan)
Briefly: KINOMEScan. Format: binding. The conditions noted are these: ASK2, 1 µM; read-out: Percent Control.

The target of the next series is T9, BRSK1 (Homo sapiens, UniProt Q8TDC3).
T9 construct: purchased Eurofins DiscoverX (KINOMEscan)
T9 sequence (Q8TDC3 whole entry): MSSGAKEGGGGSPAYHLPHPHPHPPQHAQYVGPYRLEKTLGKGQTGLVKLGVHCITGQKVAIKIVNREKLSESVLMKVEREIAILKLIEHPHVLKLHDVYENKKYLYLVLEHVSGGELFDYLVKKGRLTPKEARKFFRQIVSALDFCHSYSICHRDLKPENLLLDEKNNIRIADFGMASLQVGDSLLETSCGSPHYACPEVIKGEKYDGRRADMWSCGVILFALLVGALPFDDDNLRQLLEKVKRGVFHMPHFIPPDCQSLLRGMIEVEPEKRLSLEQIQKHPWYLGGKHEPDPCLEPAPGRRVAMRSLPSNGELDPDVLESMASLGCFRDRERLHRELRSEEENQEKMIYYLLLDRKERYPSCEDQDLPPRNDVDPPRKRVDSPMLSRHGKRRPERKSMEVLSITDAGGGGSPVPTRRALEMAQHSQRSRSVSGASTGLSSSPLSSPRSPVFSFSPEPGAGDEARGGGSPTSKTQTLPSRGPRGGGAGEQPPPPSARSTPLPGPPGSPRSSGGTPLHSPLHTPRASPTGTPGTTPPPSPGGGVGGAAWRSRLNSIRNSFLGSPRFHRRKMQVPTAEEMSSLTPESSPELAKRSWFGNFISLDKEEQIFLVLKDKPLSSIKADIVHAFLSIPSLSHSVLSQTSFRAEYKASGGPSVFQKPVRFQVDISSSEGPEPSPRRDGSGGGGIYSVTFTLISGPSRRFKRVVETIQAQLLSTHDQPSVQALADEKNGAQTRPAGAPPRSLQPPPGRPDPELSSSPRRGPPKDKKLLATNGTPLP
Briefly: KINOMEScan. Format: binding. The conditions noted are these: BRSK1, 1 µM; read-out: Percent Control.

The next series deals with T10, WEE1 (Homo sapiens, UniProt P30291).
T10 construct: purchased Eurofins DiscoverX
T10 sequence (P30291 whole entry): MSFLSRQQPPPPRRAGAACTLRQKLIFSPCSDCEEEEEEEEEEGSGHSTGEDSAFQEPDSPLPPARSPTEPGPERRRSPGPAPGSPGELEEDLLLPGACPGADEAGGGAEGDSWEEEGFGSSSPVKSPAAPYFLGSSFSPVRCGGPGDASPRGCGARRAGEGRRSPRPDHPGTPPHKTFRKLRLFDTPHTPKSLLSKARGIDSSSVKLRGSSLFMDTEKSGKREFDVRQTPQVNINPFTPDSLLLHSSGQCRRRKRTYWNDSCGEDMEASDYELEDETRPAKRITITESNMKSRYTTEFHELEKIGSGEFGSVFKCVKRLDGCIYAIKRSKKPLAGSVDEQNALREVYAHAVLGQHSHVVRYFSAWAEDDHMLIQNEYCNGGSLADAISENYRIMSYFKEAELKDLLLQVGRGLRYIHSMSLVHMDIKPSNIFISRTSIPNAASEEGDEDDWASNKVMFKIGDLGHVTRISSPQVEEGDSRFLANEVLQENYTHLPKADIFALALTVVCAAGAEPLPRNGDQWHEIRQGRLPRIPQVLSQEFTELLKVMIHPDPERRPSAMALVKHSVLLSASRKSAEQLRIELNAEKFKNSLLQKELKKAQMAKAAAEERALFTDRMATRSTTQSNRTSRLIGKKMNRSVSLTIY
Kind of series: KINOMEScan. Conditions: WEE1, 1 µM; read-out: Percent Control. It is filed as binding.

Another series deals with T11, WNK1 (Homo sapiens, UniProt Q9H4A3).
T11 construct: purchased Eurofins DiscoverX
Kind of series: KINOMEScan. It is filed as binding. Conditions: WNK1, 1 µM; read-out: Percent Control.

In another series the target is T12, EGFRwt (Homo sapiens, UniProt P00533).
T12 construct: purchased Eurofins DiscoverX (contract assay)
T12 sequence (P00533 25-1210): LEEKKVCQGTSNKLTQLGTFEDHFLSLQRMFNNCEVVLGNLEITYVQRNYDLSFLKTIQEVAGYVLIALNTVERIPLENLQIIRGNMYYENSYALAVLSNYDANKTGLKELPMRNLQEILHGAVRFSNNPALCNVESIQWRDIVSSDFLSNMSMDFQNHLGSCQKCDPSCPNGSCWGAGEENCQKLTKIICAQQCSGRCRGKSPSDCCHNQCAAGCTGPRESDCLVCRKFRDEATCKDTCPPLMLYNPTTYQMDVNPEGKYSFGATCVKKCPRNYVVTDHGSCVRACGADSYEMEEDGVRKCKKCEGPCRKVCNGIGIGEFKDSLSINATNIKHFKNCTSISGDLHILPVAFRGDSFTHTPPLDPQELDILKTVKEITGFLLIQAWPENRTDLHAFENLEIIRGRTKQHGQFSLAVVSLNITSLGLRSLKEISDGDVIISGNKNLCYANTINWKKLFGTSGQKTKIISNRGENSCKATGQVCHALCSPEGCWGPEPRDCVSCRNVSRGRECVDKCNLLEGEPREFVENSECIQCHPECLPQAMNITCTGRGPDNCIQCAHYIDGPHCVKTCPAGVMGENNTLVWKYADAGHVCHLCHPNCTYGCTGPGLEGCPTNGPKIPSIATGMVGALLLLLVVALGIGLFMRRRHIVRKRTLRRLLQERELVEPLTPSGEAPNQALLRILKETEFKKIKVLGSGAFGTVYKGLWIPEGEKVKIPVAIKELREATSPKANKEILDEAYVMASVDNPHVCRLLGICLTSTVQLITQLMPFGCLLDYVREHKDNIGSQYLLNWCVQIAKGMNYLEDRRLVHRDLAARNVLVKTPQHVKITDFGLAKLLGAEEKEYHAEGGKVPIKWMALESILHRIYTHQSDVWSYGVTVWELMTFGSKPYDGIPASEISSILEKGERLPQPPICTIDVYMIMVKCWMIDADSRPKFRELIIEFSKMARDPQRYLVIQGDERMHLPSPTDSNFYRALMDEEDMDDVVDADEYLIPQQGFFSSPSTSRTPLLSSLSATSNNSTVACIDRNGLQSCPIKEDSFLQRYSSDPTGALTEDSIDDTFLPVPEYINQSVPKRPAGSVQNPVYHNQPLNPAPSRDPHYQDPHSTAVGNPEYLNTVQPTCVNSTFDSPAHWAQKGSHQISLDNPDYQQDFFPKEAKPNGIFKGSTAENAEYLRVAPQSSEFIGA
Briefly: KINOMEScan. Format: binding. The conditions noted are these: read-out: Percent Control.

The target in a further series is CYP2D6 (Homo sapiens, UniProt P10635). Kind of series: CYP2D6 time-dependent inhibition in human liver microsomes. The conditions noted are these: for Inhibition percentage(%) at Top conc. / IC50: liver microsomes; for IC50: read-out: CYP2D6 IC50.
CYP2D6, sequence (P10635 whole entry): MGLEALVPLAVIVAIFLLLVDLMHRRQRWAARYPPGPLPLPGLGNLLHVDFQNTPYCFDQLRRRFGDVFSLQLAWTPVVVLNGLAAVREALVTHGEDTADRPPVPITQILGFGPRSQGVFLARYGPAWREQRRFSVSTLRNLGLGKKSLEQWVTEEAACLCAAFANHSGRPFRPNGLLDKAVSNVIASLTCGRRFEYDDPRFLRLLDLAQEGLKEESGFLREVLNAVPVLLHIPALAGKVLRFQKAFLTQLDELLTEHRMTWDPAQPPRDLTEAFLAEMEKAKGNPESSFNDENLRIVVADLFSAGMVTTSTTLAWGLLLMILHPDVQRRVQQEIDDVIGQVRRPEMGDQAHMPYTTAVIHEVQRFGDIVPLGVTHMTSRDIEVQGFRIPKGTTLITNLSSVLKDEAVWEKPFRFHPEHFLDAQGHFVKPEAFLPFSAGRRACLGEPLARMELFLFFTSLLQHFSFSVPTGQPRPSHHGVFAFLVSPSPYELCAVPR
Series [2] has as its system Salmonella strains (TA98, TA100, TA1537, and TA1535). The conditions noted are these: ± rat liver S9, 4 strains; 9 valid up to 50 μM. As for the experimental part:
Compounds were assessed for mutagenicity at the Eurofins Panlabs in 384-well plates using four Salmonella strains: TA98, to probe for frameshift mutation (with quercetin as control), TA100 and TA1535, to probe for base pair insertions/deletions (with streptozotocin as control), and TA1537, to probe for frameshift mutations (with aminacridine as control) as previously described.[78] Each compound was incubated at 37 °C for 96 h at four different concentrations (5, 10, 50, and 100 μM), with each concentration tested using 48 replicates, both with and without rat liver S9 metabolic activation. A concurrent bacterial cytotoxicity assay was run at 0.6, 1.2, 2.5, 5, 10, 25, 50, and 100 μM to rule out false negatives. Bacterial cytotoxicity was expressed as percent of control growth (OD650). Compounds with growth of less than 60% control were flagged and considered bacterial cytotoxic. […] Significances of the positive counts between the treatment and control were determined using a one-tailed Fisher’s exact test.

Where [3] appears, read: CD-1, mouse, mouse brain homogenate.
[4] abbreviates: female, BALB/c nude, plasma, Mouse 3 mg/kg (IV).
Where [5] appears, read: female, BALB/c nude, plasma, Mouse 30 mg/kg (PO).

T8 sequence (O95382 whole entry): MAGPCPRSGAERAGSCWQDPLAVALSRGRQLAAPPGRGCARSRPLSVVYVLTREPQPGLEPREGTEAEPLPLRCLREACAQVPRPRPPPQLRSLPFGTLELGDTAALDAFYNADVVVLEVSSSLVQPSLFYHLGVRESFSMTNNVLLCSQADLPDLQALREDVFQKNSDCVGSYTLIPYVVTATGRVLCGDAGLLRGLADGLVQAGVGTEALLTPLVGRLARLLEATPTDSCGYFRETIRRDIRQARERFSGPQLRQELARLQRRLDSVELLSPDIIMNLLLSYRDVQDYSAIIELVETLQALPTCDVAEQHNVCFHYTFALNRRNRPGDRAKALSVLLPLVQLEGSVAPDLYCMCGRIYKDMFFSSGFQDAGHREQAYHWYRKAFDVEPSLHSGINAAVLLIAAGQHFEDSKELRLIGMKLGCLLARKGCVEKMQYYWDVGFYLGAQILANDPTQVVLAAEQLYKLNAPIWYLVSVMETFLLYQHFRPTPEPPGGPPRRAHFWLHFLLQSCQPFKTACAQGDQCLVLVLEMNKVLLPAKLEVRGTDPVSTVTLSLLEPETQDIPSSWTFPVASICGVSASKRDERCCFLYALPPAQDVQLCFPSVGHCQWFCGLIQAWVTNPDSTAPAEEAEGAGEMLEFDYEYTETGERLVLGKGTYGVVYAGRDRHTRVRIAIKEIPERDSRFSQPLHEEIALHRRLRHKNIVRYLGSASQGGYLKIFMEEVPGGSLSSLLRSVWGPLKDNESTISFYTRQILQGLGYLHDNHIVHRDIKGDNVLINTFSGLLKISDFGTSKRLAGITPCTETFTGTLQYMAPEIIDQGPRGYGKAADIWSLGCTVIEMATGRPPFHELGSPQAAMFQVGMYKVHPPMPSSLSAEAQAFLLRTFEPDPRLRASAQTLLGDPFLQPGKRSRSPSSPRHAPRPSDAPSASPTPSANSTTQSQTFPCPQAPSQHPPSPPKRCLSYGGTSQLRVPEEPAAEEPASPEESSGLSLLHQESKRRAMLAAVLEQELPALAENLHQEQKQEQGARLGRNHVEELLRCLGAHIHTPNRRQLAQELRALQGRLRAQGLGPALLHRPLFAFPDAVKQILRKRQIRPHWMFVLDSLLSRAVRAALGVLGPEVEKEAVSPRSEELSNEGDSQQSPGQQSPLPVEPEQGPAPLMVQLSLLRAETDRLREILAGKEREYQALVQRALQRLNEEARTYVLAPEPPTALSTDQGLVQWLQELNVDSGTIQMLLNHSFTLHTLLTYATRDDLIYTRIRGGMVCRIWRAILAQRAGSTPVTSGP
T3 sequence (Q96D53 whole entry): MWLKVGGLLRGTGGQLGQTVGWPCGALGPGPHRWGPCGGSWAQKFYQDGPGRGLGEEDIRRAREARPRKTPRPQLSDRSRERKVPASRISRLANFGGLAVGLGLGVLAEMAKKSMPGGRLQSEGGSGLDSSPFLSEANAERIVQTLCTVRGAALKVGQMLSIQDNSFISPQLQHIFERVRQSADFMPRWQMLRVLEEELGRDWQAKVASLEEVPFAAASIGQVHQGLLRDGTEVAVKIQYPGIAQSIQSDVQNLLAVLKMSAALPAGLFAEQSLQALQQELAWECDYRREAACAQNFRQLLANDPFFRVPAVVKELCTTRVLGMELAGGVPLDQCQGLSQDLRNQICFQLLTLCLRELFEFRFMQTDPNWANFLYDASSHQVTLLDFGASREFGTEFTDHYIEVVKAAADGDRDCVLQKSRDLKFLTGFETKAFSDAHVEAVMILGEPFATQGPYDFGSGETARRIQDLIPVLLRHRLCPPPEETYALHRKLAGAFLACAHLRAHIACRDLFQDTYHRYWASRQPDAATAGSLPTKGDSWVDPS
From the text for ADCK4: (§1) Percent control was mapped onto the kinome tree using TREEspot.
From the text for ALK: as §1
From the text for AMPK-alpha2: as §1
From the text for ARK5: as §1
From the text for BRSK1: as §1
Method for CYP2C19: (§2) The activities tested were CYP1A2-mediated phenacetin O-demethylation, CYP2C19-mediated (S)-mephenyotin 4′-hydroxylation, CYP2C9-mediated diclofenac 4′-hydroxylation, CYP2D6-mediated dextromethorphan O-demethylation, and CYP3A4-mediated midazolam 1′-hydroxylation. […] The reactions were initiated by adding NADPH (1 mM final concentration) after a 5 min preincubation, and the assay was run in duplicate (n = 2). Samples were analyzed by ultra-performance liquid chromatography tandem mass spectrometry (UPLC-MS/MS).
Method for CYP3A4: as §2
From the text for EGFRwt: as §1
From the text for WEE1: as §1
From the text for WNK1: as §1

Broadly, the fraction remaining is what is left of the initial amount, in per cent. Low readings indicate a greater loss, high ones greater stability. In general, IC50 refers to the concentration needed to halve the response being measured. Broadly, the clearance is the rate of elimination divided by the concentration. High values mean a high capacity for elimination, low ones a low capacity for elimination. A word on the half-life: it is how long it takes for the measured level to halve. Read a high half-life as slow loss. As a reminder, the Cmax is the highest concentration seen after dosing. As a reminder, the Tmax is the time at which the peak concentration occurs. By bioavailability is commonly meant the share of a dose that reaches the circulation, judged against a reference dose that is usually intravenous. Read a high bioavailability as good availability. Consider `COc1cc2ncnc(Nc3cccc(Cl)c3F)c2cc1OCCON1CCN(C)CC1` [Compound 9, N-(3-Chloro-2-fluorophenyl)-7-methoxy-6-(2-((4-methylpiperazin-1-yl)oxy)ethoxy)quinazolin-4-amine], for which the fraction unbound at 6 h, 5 μM in series [1] (CD-1, mouse, brain homogenate, read-out: fu,brain% / %Unboundbrain) is 0.0405; in series [1] (CD-1, mouse, mouse brain homogenate, read-out: %Unboundbrain (converted)) it was 0.0405. Besides, the recovery at 6 h, 5 μM in series [1] (setting [3]) was found to be 93%. The share remaining at 6 h, 5 μM in [1] (setting [3]) is 92.6%. Moreover, in series [1] (mouse, brain homogenate, read-out: fu,brain% / %Unboundbrain), the fraction unbound at 6 h, 5 µM turned out to be 0.041. Also, the 50% inhibitory concentration (IC50) on CYP2C19 was above 30 µM; against CYP3A4, above 30 µM; at CYP2D6 (30 min with NADPH) it was 1.82 µM; at CYP2D6 (30 min without NADPH), 1.16 µM; at CYP2D6 (pre-incubation 0 min) it was 1.05 µM. Further, in “Pharmacokinetic study” (30 mg/kg PO, BALB/c nude mice), the “plasma level at the 24 h time point” value is given as “no compound was detected”. The compound also showed a clearance in the series “Pharmacokinetic study” (setting [4]) of 58.6 ± 8.7 mL/min/kg. In addition, the values for the half-life at 24 h in the series “Pharmacokinetic study” (setting [4]) and in the series “Pharmacokinetic study” (setting [5]) were 1.67 ± 0.12 h and 1.84 ± 0.62 h, respectively. Also, the Vd at 24 h in “Pharmacokinetic study” (female, BALB/c nude, plasma, Mouse 3 mg/kg (IV), read-out: Vss) is 4.68 ± 0.54 L/kg. This compound also gave a peak concentration (Cmax) at 24 h in the series “Pharmacokinetic study” (setting [5]) of 2180 ± 66 nM. The time to peak (Tmax) at 24 h in the series “Pharmacokinetic study” (setting [5]) stood at 0.42 ± 0.14 h. This compound also came in with a bioavailability at 24 h in “Pharmacokinetic study” (setting [5]) of 61%. Moreover, the remaining binding at 1 µM at ADCK4 amounted to 79%; on ALK, 89%; on AMPK-alpha2 it was 97%; on ARK5, 100%; on ASK1, 100%; on ASK2 it was 85%. The remaining binding at 1 µM was 100% on BRSK1, 100% on WEE1, 100% on WNK1 and 0.3% at EGFRwt. On CYP2D6 (IC50-shift, human liver microsomes and primary human hepatocytes), the “CYP 2D6 TDI” value is listed as “Negative; also recorded: not to be time-dependent”. Further, the results for the “Inhibition percentage(%) at Top conc.” value on CYP2D6 (0 min), on CYP2D6 (30 min with NADPH) and at CYP2D6 (30 min without NADPH) were 78.15%, 74.73% and 78.78%, respectively.

Regarding `COc1cc2ncnc(Nc3cccc(Cl)c3F)c2cc1OCCON1CCOCC1` [Compound 7, N-(3-Chloro-2-fluorophenyl)-7-methoxy-6-(2-(morpholinooxy)ethoxy)quinazolin-4-amine], in series [2], the AMES result is “Negative”.
